According to patent publication US20220280644A1, “"TRPswitch" - A STEP FUNCTION CHEMO-OPTOGENETIC LIGAND” (UNIVERSITY OF UTAH RESEARCH FOUNDATION, priority 2019, published 2022):

Tests used:
[1] = tested on: wild-type zebrafish larvae; test: Behavioral assay: light-induced motion response of wild-type larvae; type: in vivo, Zebrafish (Danio rerio); conditions: DABCO, singlet oxygen quencher
Procedure: A total of 1,000 compounds were selected from the ChemBridge Corp. catalog. Compounds were dissolved in DMSO at a stock concentration of 1 μg/μL (˜1.5 mM). The library was screened at a 1:100 dilution in E3 solution for a final concentration of ˜15 μM. Negative controls were treated with an equal volume of DMSO. Groups of 3 larvae at 3 days post fertilization (dpf) were distributed into the wells of 96-well clear bottom black microplates (07-200-567; Fisher Scientific) in 150 μL E3 before the addition of small molecules. Stock solutions of compounds were added directly to zebrafish in the wells of a 96 well plate (Corning 3631), mixed, and allowed to incubate for 1 h in the dark at 28.5° C. prior to behavioral evaluation in the behavioral assay. Ordering information: 1 (5533696; ChemBridge); 3 (5538408; ChemBridge).
Larvae in each of the wells were exposed to four 1 second flashes of light stimulus in the following order: 450-500 nm (WL1), 415-455 nm (WL2), 352-402 nm (WL3), white light (WL4), with a 5 second inter-stimulus interval. Digital video recording was performed for 5 seconds before the first light stimuli and continued throughout the stimulation sequence. Band pass filters (Semrock FF02-475/50, FF02-435/40, FF01-377/50) were used to restrict the excitation light to the indicated wavelengths. […] 290 frames of digital video were recorded per well at 10 FPS using an EMCCD camera (C9100; Hamamatsu) mounted on an inverted compound microscope (AxioObserver A1; Zeiss) with a NA 0.03 1.25× objective and a barrier with a 0.7 mm diameter opening to restrict light scattering to the sample. MetaMorph software (Molecular Devices) was used to control the execution of TTL signals and camera capture using the built-in stream acquisition with trigger function. Each video was saved for review. Light stimuli were generated with an ozone free 300-Watt xenon bulb housed in a Lambda LS illuminator (Sutter Instruments). A dichroic mirror (T510LPXRXT; Chroma) was used for appropriate excitation of samples and bright field acquisition. Schott longpass absorption glass (RG610; Chroma) was added in the transmitted light path to reduce unwanted excitation to the well and to provide sufficient light for video recording. All behavioral experiments were conducted at room temperature. […]
To analyze digital video recordings, custom MetaMorph software scripts were used to automatically threshold the video to identify the area of larvae in each frame. Threshold images of the frames after each light activation event were overlaid to calculate a new combined threshold area. The motion index was calculated as the percentage change between the threshold area in the frame right before light activation and the new combined threshold area. This motion index correlates with the overall amount of motion in the well.

[2] = tested on: wild-type zebrafish larvae; conditions: reference [23]; cited from earlier work
Trpa1b mutant larvae = conditions: previously identified; cited from earlier work

For Cc1cc(/C=C2/SC(=S)NC2=O)c(C)n1-c1cccnc1 [optovin], the “effect of DABCO on light-induced motion response” value [1] is listed as “abolished”, the “suppression of response by DABCO” value [2] is listed as “completely suppress” and the “activity in Trpa1b mutant zebrafish” value (Trpa1b mutant larvae) is listed as “abolished”.
